# Patent US10912294B2, “Composition for use as pesticide, fertilizer, or both, and uses thereof” (priority 2015, dated 2021)
# What was measured:
# [1] = system: Staphylococcus aureus ATCC6538; settings: R. J. W. Lambert et al. 2001; cited from earlier work
# [2] = system: Candida tropicalis ATCC13803; settings: E. pinto et al. 2006; cited from earlier work
# [3] = system: Pseudomonas aeruginosa ATCC2730; settings: R. J. W. Lambert et al. 2001; cited from earlier work
# [4] = system: Candida albicans ATCC10231; settings: E. pinto et al. 2006; cited from earlier work
# [5] = system: Staphylococcus aureus ATCC43300; settings: A. Nostro et al. 2004; cited from earlier work
# Microsporum canis FF1 = settings: E. pinto et al. 2006; cited from earlier work
# [6] = system: Staphylococcus epidermidis ATCC12228; settings: A. Nostro et al. 2004; cited from earlier work
# Trichophyton rubrum FF5 = settings: E. pinto et al. 2006; cited from earlier work
# [7] = system: Trichophyton mentagrophytes FF7; settings: E. pinto et al. 2006; cited from earlier work
# Microsporum gypseum FF3 = settings: E. pinto et al. 2006; cited from earlier work
# [8] = system: Staphylococcus aureus (ATCC 6538); experiment: Minimum concentration for total bactericidal activity, AOAC method 955.15 (Phenol Coefficient Method); type: cell-based; settings: total antimicrobial (bactericidal) activity; incorporated into composition F; contact time 10 minutes
# [9] = system: Epidermophyton floccosum FF9; settings: E. pinto et al. 2006; cited from earlier work
# [10] = system: Aspergillus niger ATCC16404; settings: E. pinto et al. 2006; cited from earlier work
# [11] = system: Aspergillus fumigatus ATCC46645; settings: E. pinto et al. 2006; cited from earlier work
# [12] = in vivo; cited from earlier work
# [13] = system: Treponema phagedaenis-like; settings: D. Döpfer et al. 2013; cited from earlier work
# E. coli ATCC 25922 = experiment: Sensitivity test on King B agar media; type: cell-based; settings: streptomycin 100, 250 and 500 ppm; composition 12 at 1, 2.5 and 5%; up to 72 hours at 26° C.
# [14] = system: E. amylovora 433 (streptomycin-sensitive); experiment: Sensitivity test on King B agar media; type: cell-based, Erwinia amylovora; settings: streptomycin 100, 250 and 500 ppm; composition 12 at 1, 2.5 and 5%; up to 72 hours at 26° C.
# [15] = system: E. amylovora 435 (streptomycin-sensitive); experiment: Sensitivity test on King B agar media; type: cell-based, Erwinia amylovora; settings: streptomycin 100, 250 and 500 ppm; composition 12 at 1, 2.5 and 5%; up to 72 hours at 26° C.
# [16] = system: E. amylovora 153sm5 (streptomycin-resistant); type: cell-based, Erwinia amylovora; settings: streptomycin 100, 250 and 500 ppm; composition 12 at 1, 2.5 and 5%; up to 72 hours at 26° C.
compound,measurement,setting,value
Cc1ccc(C(C)C)cc1O [Carvacrol],MIC,[1],0.0175 v/v %
same,MIC,[2],0.016 v/v %
same,MIC,[3],0.045 v/v %
same,MIC,[4],0.016 v/v %
same,MIC,[5],0.015 v/v %
same,MIC,Microsporum canis FF1,0.004 v/v %
same,MIC,[6],0.03 v/v %
same,MIC,Trichophyton rubrum FF5,0.008 v/v %
same,MIC,[7],0.004 v/v %
same,MIC,Microsporum gypseum FF3,0.004 v/v %
same,Minimal Concentration,[8],0.07 v/v %
same,MIC,[9],0.008 v/v %
same,MIC,[10],0.016 v/v %
same,MIC,[11],0.016 v/v %
CC(C)=CCCC(C)=CC=O [Citral],Minimal Concentration,[8],>1% v/v %
C=CCc1ccc(O)c(OC)c1 [Eugenol],Minimal Concentration,[8],0.4 v/v %
COCC(C)O (stereo not shown) [Glycol Ether PM],LD50 Oral-rat,[12],5 210 mg/kg
CCCCCCCCCCCCOS(=O)(=O)[O-].[Na+] [Sodium Lauryl Sulfate],LD50 Oral-rat,[12],1288 mg/kg
Cc1ccc(C(C)C)c(O)c1 [Thymol],MIC,[1],0.014 v/v %
same,MIC,[2],0.016 v/v %
same,MIC,[3],0.0385 v/v %
same,MIC,[4],0.016 v/v %
same,MIC,[5],0.06 v/v %
same,MIC,Microsporum canis FF1,0.008 v/v %
same,MIC,[13],0.0006 v/v %
same,MIC,[6],0.06 v/v %
same,MIC,Trichophyton rubrum FF5,0.016 v/v %
same,MIC,[7],0.016 v/v %
same,MIC,Microsporum gypseum FF3,0.016 v/v %
same,Minimal Concentration,[8],0.07 v/v %
same,MIC,[9],0.016 v/v %
same,MIC,[10],0.016 v/v %
same,MIC,[11],0.016 v/v %
[H]/N=C(/N)N[C@H]1[C@H](O)[C@@H](O)[C@H](O[C@@H]2O[C@@H](C)[C@](O)(C=O)[C@H]2O[C@@H]2O[C@@H](CO)[C@H](O)[C@@H](O)[C@@H]2NC)[C@@H](N/C(N)=N\[H])[C@@H]1O [streptomycin],Bacterial growth on King B agar media containing the agent,E. coli ATCC 25922,did not grow
same,Bacterial growth on King B agar media containing the agent,[14],did not grow
same,Bacterial growth on King B agar media containing the agent,[15],did not grow
same,Bacterial growth on King B agar media containing the agent,[16],not inhibited
